Source: patent publication US20210161146A1, “COMPOSITIONS AND METHODS FOR INHIBITING PATHOGENS ON PLANTS” (CH2O INCORPORATED, priority 2018, published 2021)

Assays:
[1] = test system: Erwinia amylovora ("Fire Blight"); conditions: before the ClO2 trial; cited from earlier work
Jack Frost Blight = assay: Orchard #6 field treatment of blight-infected apple trees; assay type: in vivo
Protocol: Apple trees at Orchard #6 infected with Jack Frost Blight (FIGS. 9A, 9B and 9C) were treated with 2 ppm (FIG. 10A), 5 ppm, 10 ppm (FIG. 10B) or 25 ppm (FIG. 10C) of ClO2. While blight was easily found in untreated areas of the block, only 2 strikes were found in the 2 ppm test area, no strikes were found in the 5 ppm area, 1 strike was found in the 10 ppm area, and 1 strike was found at the very end of the 25 ppm area (it is unclear whether that part of the area was actually treated or treated fully).

[2] = test system: Red Blotch Virus (Grablovirus or GRBav); assay: Field trials on grape vines infected with Red Blotch Virus; assay type: in vivo
Protocol: Field trials were performed on grape vines infected with Red Blotch Virus (Grablovirus or GRBav).
Grape vines were treated with (36% 36% hydrochloric acid, 8% 60% active HEDPA, 0.5% 120 grain vinegar, 0.5% 85% phosphoric acid, and 55% water, all by weight) and (3.1% 60% active HEDPA, 1.6% 45% active potassium hydroxide, […], all by weight). ClO2 was made using a CH2O-ClO2 generator, and applied using an orchard sprayer. 200 gallons of treated water was applied per acre, and the treated water contained 15 ppm ClO2. The air temperature was 70° F.-90° F. on the days of application.
Half of the treated rows were pruned with shears dipped in water containing 30 to 50 ppm chlorine bleach.

[3] = test system: Erwinia amylovora ("Fire Blight"); assay: Field experiment in apple and pear tree orchard infected with Fire Blight; assay type: in vivo
Protocol: An apple and pear tree orchard infected with Erwinia amylovora (“Fire Blight”) was treated with 2 ppm, 5 ppm, 10 ppm, and 25 ppm ClO2 as described herein. Previous unsuccessful treatments included foliar medications and metal (Cu) suspended in oil, and Tetramyacin and Oxytetracycline application. These are very expensive medication option(s) that are becoming obsolete w/resistance.
The treatment protocol at this orchard included a three step approach: a) irrigation water; b) topical application before first bloom (e.g., begin topical treatment before primary bloom event and all the way through second blooming event); and c) ooze treatment/vector suppression. Given the timing of this trial, only step C is relevant.
Trees were sprayed when the temperature reached a minimum of 50° F. The temperature for treating bacterial ooze should be between 75-90° F., with highest “safe” rates of ClO2 used to prevent spread through insect and pollination activity. The residual phosphorus (from phosphonates) should have lasting protection properties even days after a topical application.
Rows were marked based on the concentration of ClO2 to be applied. Each concentration rate was applied slowly over four rows of trees. Two rows of trees were left untreated between each of the treated rows to prevent drift. After an application at a particular concentration was complete, the pump speed was increased or decreased to adjust the ClO2 concentration for the next application.

Compound	outcome of previous treatments of the orchard [1]	blight strikes found in test area (Jack Frost Blight; 2 ppm ClO2 test area)	blight strikes found in test area (Jack Frost Blight; 5 ppm ClO2 area)	blight strikes found in test area (Jack Frost Blight; 10 ppm ClO2 area)	blight strikes found in test area (Jack Frost Blight; 25 ppm ClO2 area, very end (unclear whether treated fully))	less GRBav than the untreated control area ([2]; 15 ppm ClO2, 200 gallons per acre, pruned with ClO2-sanitized shears)	less virus than the untreated control area ([2]; 15 ppm ClO2, 200 gallons per acre, pruned with shears dipped in chlorine bleach)	reduction in the amount of virus on the grape plants ([2]; 15 ppm ClO2, both pruning groups)	new blight strikes observed ([3]; 2 ppm zone)	new blight found ([3]; remaining test zones (5 ppm, 10 ppm, 25 ppm))	ClO2 concentration effective for disease control ([3]; topical spray on infected trees)
Tetramyacin	unsuccessful	–	–	–	–	–	–	–	–	–	–
[O][Cl+][O-] [ClO2, chlorine dioxide]	–	2 strikes	no strikes	1 strike	1 strike	approximately 85%	approximately 75%	75-85%	One	no new blight	≥ 5 ppm
